Consider three molecules from article PMC6430017, “Structural and chemical insights into the covalent-allosteric inhibition of the protein kinase Akt” (Chemical Science, 2019).

In general, inhibition refers to the relative decrease from the control value, in per cent. The half-life is the time in which the quantity being followed falls by half. A low value points to rapid decline. What is called microsomal CLint is a measure of how fast metabolising enzymes remove a compound, apart from limits set by blood flow. A low value points to slow turnover.

The target of one data set is GSK3B (GSK3 beta) (Homo sapiens, UniProt P49841). Nature of the data set: SelectScreen Z'LYTE kinase profiling. The settings on record: ATP at apparent KM. It is filed as biochemical.
For a further data set, the target named is AMPK A2/B1/G1 (Homo sapiens, UniProt P54646). Nature of the data set: SelectScreen Z'LYTE kinase profiling. The data set is classed as biochemical. As to conditions: ATP at apparent KM.
Another data set addresses PAK4 (Homo sapiens, UniProt O96013). Nature of the data set: SelectScreen Z'LYTE kinase profiling. The data set is classed as biochemical. As to conditions: ATP at apparent KM.
A further data set deals with RPS6KA4 (MSK2) (Homo sapiens, UniProt O75676). Nature of the data set: SelectScreen Z'LYTE kinase profiling. It is filed as biochemical. As to conditions: ATP at apparent KM.
A further data set deals with CDK2/cyclin A (Homo sapiens, UniProt P24941). Nature of the data set: SelectScreen Z'LYTE kinase profiling. The data set is classed as biochemical. The settings on record: ATP at apparent KM.
The next data set concerns the target IGF1R (Homo sapiens, UniProt P08069). Nature of the data set: SelectScreen Z'LYTE kinase profiling. The data set is classed as biochemical. The settings on record: ATP at apparent KM.
Another data set concerns the target T1, EPHB4 (Homo sapiens, UniProt P54760).
T1 sequence (P54760 16-987): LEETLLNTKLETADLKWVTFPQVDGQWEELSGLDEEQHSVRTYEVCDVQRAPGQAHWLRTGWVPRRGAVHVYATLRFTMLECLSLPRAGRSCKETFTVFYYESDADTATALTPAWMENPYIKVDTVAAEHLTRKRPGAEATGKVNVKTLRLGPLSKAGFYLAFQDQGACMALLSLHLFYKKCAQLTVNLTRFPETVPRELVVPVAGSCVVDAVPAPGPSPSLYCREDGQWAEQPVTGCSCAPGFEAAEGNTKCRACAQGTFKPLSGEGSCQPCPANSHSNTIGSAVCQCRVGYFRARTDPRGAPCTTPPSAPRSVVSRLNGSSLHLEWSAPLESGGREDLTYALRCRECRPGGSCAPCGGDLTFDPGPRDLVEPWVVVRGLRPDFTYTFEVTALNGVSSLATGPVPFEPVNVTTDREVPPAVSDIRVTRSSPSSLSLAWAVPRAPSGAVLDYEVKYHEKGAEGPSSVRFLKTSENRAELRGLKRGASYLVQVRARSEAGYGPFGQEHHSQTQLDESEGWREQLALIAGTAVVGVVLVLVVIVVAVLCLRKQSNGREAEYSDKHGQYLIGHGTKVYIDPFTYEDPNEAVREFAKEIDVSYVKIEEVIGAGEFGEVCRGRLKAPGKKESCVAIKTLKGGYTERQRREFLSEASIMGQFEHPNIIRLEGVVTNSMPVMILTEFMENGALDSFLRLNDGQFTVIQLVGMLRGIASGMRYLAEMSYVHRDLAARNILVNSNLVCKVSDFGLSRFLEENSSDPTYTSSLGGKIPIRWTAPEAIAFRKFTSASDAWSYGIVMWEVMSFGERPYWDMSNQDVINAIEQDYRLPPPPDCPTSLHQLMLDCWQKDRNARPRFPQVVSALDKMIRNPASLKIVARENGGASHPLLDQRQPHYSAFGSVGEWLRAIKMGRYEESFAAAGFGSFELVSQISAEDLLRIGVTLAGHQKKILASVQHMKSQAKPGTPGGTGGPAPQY
Nature of the data set: SelectScreen Z'LYTE kinase profiling. As to conditions: ATP at apparent KM. It is filed as biochemical.

The target in the next data set is JAK2 (Homo sapiens, UniProt O60674). Nature of the data set: SelectScreen Z'LYTE kinase profiling. The data set is classed as biochemical. The settings on record: ATP at apparent KM.
The target of the next data set is MAPK1 (ERK2) (Homo sapiens, UniProt P28482). Nature of the data set: SelectScreen Z'LYTE kinase profiling. The data set is classed as biochemical. As to conditions: ATP at apparent KM.
The target of another data set is MET (cMet) (Homo sapiens, UniProt P08581). Nature of the data set: SelectScreen Z'LYTE kinase profiling. It is filed as biochemical. The settings on record: ATP at apparent KM.
The target in another data set is T2, SGK2 (Homo sapiens, UniProt Q9HBY8).
T2 sequence (Q9HBY8 1-367): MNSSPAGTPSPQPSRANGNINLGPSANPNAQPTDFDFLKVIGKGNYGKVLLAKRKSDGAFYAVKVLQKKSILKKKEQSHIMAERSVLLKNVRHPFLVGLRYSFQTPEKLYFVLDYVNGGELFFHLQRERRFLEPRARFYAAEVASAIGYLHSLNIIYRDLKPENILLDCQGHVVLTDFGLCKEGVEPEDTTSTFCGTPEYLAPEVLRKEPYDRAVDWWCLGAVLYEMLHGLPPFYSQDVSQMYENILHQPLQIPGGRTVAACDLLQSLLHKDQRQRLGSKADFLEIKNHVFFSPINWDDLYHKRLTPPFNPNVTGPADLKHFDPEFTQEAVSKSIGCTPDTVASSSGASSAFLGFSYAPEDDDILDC
Nature of the data set: SelectScreen Z'LYTE kinase profiling. It is filed as biochemical. The settings on record: ATP at apparent KM.

For a further data set, the target named is T3, CHEK1 (CHK1) (Homo sapiens, UniProt O14757).
T3 sequence (O14757 1-476): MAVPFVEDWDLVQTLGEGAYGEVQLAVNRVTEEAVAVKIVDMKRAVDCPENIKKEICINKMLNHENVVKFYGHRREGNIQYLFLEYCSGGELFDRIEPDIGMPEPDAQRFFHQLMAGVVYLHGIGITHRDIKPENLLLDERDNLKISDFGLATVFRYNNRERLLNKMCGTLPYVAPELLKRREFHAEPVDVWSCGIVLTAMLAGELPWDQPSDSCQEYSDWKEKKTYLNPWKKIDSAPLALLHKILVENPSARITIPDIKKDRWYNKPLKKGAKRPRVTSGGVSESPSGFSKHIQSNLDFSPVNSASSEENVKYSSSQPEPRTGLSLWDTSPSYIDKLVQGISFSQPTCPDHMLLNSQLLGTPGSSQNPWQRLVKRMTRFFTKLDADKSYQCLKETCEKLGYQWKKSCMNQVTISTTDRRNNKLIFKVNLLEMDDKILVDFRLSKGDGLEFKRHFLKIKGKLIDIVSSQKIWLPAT
The data set can be described thus: SelectScreen Z'LYTE kinase profiling. The data set is classed as biochemical. The settings on record: ATP at apparent KM.

A further data set deals with PTK2 (FAK) (Homo sapiens, UniProt Q05397). Nature of the data set: SelectScreen Z'LYTE kinase profiling. It is filed as biochemical. The settings on record: ATP at apparent KM.
Data set [1] is described as follows: Phase I metabolic stability assay. As to conditions: human, liver microsomes.
Description: For this purpose, we used a microsomal stability assay that is a good predictor for phase I metabolic stability.[50]
Metabolic stability under oxidative conditions was determined by LCMS-based measuring of
degradation of compounds at 3 µM in human and murine liver microsomes over 60 minutes at 37 °C
Calculating the compound half-life t1/2, the in vitro intrinsic clearance CLint is

PTK2 (FAK), sequence (Q05397 whole entry): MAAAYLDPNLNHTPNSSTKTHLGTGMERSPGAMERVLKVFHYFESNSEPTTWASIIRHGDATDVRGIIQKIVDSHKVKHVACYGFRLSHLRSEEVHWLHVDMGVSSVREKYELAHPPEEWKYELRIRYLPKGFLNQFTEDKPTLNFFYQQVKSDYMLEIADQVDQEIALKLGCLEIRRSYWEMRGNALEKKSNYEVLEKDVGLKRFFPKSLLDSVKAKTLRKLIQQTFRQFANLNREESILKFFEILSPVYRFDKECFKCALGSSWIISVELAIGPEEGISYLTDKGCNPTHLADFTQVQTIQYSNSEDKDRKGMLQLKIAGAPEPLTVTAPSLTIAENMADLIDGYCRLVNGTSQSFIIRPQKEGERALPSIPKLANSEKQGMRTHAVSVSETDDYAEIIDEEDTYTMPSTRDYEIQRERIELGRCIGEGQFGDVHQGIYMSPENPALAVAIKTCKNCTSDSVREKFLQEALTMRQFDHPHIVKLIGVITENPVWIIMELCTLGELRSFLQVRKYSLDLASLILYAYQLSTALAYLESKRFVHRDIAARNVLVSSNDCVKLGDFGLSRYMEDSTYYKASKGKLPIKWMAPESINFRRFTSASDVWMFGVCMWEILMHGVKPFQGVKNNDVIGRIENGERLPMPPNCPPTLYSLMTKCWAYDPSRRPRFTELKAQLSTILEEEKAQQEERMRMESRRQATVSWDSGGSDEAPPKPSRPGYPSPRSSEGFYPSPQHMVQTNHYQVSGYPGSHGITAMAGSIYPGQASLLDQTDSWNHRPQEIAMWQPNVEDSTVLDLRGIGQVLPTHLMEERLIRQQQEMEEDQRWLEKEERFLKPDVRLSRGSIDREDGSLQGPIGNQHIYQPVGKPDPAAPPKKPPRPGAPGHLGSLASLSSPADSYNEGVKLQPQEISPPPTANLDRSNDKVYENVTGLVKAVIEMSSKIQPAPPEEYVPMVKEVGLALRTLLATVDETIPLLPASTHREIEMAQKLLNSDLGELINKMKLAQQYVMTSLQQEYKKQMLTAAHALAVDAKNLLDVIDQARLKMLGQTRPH
MAPK1 (ERK2), sequence (P28482 whole entry): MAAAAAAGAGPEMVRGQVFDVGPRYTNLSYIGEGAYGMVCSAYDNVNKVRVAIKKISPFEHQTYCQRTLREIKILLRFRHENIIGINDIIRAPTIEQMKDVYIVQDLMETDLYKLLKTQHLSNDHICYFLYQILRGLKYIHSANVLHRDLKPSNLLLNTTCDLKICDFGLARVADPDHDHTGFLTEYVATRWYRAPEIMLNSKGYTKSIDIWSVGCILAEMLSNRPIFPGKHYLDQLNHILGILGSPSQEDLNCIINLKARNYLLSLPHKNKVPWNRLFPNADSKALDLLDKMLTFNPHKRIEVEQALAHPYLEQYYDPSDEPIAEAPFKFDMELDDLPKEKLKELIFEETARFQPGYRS
JAK2, sequence (O60674 whole entry): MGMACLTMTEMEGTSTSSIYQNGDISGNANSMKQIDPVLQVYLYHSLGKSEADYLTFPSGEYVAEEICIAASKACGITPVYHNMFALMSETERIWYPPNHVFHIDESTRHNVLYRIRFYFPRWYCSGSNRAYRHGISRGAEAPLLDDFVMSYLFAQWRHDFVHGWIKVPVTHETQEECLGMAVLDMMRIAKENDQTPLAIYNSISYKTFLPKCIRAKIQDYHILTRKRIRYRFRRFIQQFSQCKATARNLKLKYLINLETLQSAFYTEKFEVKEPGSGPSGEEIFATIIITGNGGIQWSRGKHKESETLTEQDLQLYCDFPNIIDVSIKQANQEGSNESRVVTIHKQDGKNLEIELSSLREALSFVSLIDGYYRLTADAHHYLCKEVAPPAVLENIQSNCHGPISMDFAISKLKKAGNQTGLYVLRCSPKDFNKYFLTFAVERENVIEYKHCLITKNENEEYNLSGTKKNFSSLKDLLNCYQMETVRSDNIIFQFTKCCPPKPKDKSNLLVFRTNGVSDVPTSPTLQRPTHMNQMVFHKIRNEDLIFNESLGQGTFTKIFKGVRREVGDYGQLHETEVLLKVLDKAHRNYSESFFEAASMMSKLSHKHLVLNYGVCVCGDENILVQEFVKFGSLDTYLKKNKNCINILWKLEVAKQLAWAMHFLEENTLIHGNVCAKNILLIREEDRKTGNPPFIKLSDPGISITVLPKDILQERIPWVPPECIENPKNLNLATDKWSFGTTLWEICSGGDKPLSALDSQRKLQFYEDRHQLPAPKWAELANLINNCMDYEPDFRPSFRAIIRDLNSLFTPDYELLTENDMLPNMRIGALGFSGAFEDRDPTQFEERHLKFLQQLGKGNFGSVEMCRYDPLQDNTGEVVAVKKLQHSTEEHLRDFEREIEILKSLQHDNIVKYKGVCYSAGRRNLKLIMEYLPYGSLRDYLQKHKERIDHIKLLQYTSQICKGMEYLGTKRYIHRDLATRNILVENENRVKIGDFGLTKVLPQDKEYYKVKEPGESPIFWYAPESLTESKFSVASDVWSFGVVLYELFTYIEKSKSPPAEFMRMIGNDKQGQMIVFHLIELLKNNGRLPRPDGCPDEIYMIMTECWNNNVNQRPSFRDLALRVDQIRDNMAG
RPS6KA4 (MSK2), sequence (O75676 whole entry): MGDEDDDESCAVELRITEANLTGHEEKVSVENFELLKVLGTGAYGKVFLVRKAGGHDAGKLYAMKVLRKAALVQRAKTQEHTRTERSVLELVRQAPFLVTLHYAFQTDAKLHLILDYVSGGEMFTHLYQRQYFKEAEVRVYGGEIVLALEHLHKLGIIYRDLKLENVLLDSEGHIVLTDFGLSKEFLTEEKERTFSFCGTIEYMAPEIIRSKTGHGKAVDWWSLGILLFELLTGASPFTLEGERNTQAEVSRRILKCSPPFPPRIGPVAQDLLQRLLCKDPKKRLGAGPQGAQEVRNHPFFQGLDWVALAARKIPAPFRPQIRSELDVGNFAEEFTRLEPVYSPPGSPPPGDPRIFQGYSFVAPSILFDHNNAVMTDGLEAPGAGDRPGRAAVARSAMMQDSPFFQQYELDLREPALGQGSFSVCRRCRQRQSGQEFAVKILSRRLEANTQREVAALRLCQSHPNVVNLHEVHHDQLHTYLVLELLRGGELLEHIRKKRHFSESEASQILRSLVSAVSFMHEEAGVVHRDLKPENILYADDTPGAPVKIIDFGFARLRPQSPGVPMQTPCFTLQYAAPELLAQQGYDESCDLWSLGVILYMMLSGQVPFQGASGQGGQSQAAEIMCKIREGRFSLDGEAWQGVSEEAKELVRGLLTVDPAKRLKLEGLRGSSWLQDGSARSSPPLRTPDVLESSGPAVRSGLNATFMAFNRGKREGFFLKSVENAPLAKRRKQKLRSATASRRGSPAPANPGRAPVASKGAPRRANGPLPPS
PAK4, sequence (O96013 whole entry): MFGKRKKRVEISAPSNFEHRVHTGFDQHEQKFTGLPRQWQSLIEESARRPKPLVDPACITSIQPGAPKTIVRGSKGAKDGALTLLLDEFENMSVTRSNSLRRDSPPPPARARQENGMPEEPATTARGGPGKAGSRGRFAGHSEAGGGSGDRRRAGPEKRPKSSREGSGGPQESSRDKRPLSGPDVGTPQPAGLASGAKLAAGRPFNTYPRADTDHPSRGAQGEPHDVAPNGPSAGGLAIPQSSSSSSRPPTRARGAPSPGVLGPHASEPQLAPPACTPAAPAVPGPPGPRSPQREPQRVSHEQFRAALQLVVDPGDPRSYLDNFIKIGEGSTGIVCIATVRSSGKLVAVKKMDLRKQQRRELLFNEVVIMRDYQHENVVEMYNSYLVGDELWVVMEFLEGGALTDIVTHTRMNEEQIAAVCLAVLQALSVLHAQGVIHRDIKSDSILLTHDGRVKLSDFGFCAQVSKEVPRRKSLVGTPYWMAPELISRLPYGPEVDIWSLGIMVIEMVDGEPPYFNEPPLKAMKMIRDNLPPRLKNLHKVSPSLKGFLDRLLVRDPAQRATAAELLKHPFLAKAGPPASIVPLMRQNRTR
GSK3B (GSK3 beta), sequence (P49841 whole entry): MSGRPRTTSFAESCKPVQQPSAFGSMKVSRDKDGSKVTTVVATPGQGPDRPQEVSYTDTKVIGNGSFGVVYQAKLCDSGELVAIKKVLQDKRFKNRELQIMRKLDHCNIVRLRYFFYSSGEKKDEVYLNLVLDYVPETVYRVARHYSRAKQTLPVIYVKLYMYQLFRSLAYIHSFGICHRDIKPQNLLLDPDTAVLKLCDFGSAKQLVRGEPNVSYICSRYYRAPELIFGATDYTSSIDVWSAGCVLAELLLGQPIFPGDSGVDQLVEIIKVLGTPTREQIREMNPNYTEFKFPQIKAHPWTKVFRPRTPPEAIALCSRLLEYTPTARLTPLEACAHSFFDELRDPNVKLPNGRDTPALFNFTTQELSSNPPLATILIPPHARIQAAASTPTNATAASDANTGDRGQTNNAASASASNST
Description for AMPK A2/B1/G1: (§1) protein kinases at a compound concentration of 1 µM. Measurements were performed in duplicates
(§2) and at the particular apparent ATP KM of each individual kinase employing the activity based Z’LYTE®
(§3) kinase assay of the SelectScreen® Kinase Profiling Services (ThermoFisher Scientific).
(§4) kinases at a compound concentration of 1 µM. Measurements were performed in duplicates and at
(§5) the particular apparent ATP KM of each individual kinase employing the activity based Z’LYTE® kinase
(§6) assay of the SelectScreen® Kinase Profiling Services (ThermoFisher Scientific).
Description for CDK2/cyclin A: as §1, §2, §3, §4, §5, §6
Description for CHEK1 (CHK1): as §1, §2, §3, §4, §5, §6
Description for EPHB4: as §1, §2, §3, §4, §5, §6
Description for GSK3B (GSK3 beta): as §1, §2, §3, §4, §5, §6
Description for JAK2: as §1, §2, §3, §4, §5, §6
Description for MAPK1 (ERK2): as §1, §2, §3, §4, §5, §6
Description for MET (cMet): as §1, §2, §3, §4, §5, §6
Description for PAK4: as §1, §2, §3, §4, §5, §6
Description for PTK2 (FAK): as §1, §2, §3, §4, §5, §6
Description for RPS6KA4 (MSK2): as §1, §2, §3, §4, §5, §6
Description for SGK2: as §1, §2, §3, §4, §5, §6

For the molecule `C=CC(=O)Nc1ccc2c(c1)n(C1CCN(Cc3ccc(-c4nc5cc[nH]c(=O)c5cc4-c4ccccc4)cc3)CC1)c(=O)n2C` [24b], the inhibition at 1 µM at GSK3B (GSK3 beta) turned out to be 22%; at AMPK A2/B1/G1, 20%; at PAK4, 12%; on RPS6KA4 (MSK2), 9%; at CDK2/cyclin A, 7%; on IGF1R, 6%. Moreover, the inhibition at 1 µM on EPHB4 was 4%; on JAK2, 2%; at MAPK1 (ERK2), 2%; on MET (cMet) it was 1%; on SGK2, -1%; at CHEK1 (CHK1) it was -3%. The inhibition at 1 µM at PTK2 (FAK) is -20%. The molecule also gave a half-life at 1 h, 3 µM in data set [1] of 25 min. In data set [1], the microsomal CLint at 3 µM turned out to be 19 µL/min/mg.
For the molecule `C=CC(=O)Nc1cccc(C(=O)NC2CCN(Cc3ccc(-c4nc5cc[nH]c(=O)c5cc4-c4ccccc4)cc3)CC2)c1` [30b], the inhibition at 1 µM was determined as 29% at GSK3B (GSK3 beta); 40% on AMPK A2/B1/G1; 8% at PAK4; 11% on RPS6KA4 (MSK2); 11% at CDK2/cyclin A; 1% on IGF1R. In addition, the inhibition at 1 µM at EPHB4 amounted to 1%; at JAK2, 16%; at MAPK1 (ERK2) it was 13%; on MET (cMet) it was 0%; on SGK2, 3%; at CHEK1 (CHK1), 9%. Also, the inhibition at 1 µM at PTK2 (FAK) is -4%. Further, in data set [1], the half-life at 1 h, 3 µM was 58 min. In data set [1], this molecule yielded an intrinsic metabolic clearance (microsomal CLint) at 3 µM of 8 µL/min/mg.
Consider `C=CC(=O)Nc1cc(NC(=O)NC2CCN(Cc3ccc(-c4nc5cc[nH]c(=O)c5cc4-c4ccccc4)cc3)CC2)ccc1Cl` [compound 27], for which the inhibition at 1 µM on GSK3B (GSK3 beta) was 18%; on AMPK A2/B1/G1, 77%; at PAK4, 16%; at RPS6KA4 (MSK2), 16%; at CDK2/cyclin A, 6%; at IGF1R it was 7%. For the same molecule, the inhibition at 1 µM turned out to be 4% on EPHB4; 0% on JAK2; 11% at MAPK1 (ERK2); 4% at MET (cMet); 4% at SGK2; 8% at CHEK1 (CHK1). Besides, the inhibition at 1 µM at PTK2 (FAK) was -1%. The same molecule registered a half-life at 1 h, 3 µM in [1] of 19 min. Moreover, the microsomal CLint at 3 µM in data set [1] amounted to 24 µL/min/mg.
